In patent publication US20250312499A1, “KISSPEPTIN RECEPTOR (KISS1R) TARGETED THERAPEUTICS AND USES THEREOF” (priority 2024, published 2025) one finds Ki data, which are given here for 18 molecules.

Numbered stars: 1 amine (or outer) side, 2 acyl side, 3 side chain; on linkers, the order of the positions; unused ones are H or OH. Square brackets hold non-standard residues; d marks the D form. Peptide text beside a SMILES is read from it. * marks the point of attachment. DOTA = O=C(O)CN1CCN(CC(=O)O)CCN(CC(=O)*)CCN(CC(=O)O)CC1; Gly(N-(3-F-4-Me-benzyl)) = Cc1ccc(CNCC(=O)*)cc1F; Butanoyl(4-(4-I-phenyl)) = O=C(CCCc1ccc(I)cc1)*; Gly(Nα-4-MeO-benzyl) = COc1ccc(CNCC(=O)*)cc1; X4 = O=C(c1ccc(-c2ccccc2OCCCN[*:1])cc1)[*:2]; Butanoyl(4-(4-MePh)) = Cc1ccc(CCCC(=O)*)cc1; Api(1-amidino) = N=C(N)N1CCC(N)(C(=O)O)CC1; 2Nal = N[C@@H](Cc1ccc2ccccc2c1)C(=O)O; d2Nal = N[C@H](Cc1ccc2ccccc2c1)C(=O)O; Hyp = O=C(O)[C@@H]1C[C@@H](O)CN1; 4Pal = N[C@@H](Cc1ccncc1)C(=O)O; d4Pal = N[C@H](Cc1ccncc1)C(=O)O; Cha = N[C@@H](CC1CCCCC1)C(=O)O; Api = NC1(C(=O)O)CCNCC1; Ahx = NCCCCCC(=O)O; azaGly = NNC(=O)O

The target in this assay is human kisspeptin receptor (Homo sapiens (Human), UniProt Q969F8). Nature of the assay: Human KISS1R binding assay (membrane competition binding). As to conditions: 90 min at room temperature; competition with 0.2 nM [125I]-metastin (45-54); Flp-In T-Rex 293 kisspeptin membranes; metal complexes nonradioactive Ga, In, Lu; read-out: hKiSSR Binding Ki (90 min). In outline: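 Membranes from tetracycline-induced (48 h) Flp-In T-Rex 293 cells expressing receptor, 5–10 μg, incubated 90 min at room temperature with 0.2 nM [125I]-metastin (45-54) and competitor (typically 0–10,000 nM) in Tris/Mg/Ca/EGTA/0.1% BSA, pH 7.4. Filtration, washing, counting; Ki by non-linear regression.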
Sequence of human kisspeptin receptor (Q969F8 whole entry): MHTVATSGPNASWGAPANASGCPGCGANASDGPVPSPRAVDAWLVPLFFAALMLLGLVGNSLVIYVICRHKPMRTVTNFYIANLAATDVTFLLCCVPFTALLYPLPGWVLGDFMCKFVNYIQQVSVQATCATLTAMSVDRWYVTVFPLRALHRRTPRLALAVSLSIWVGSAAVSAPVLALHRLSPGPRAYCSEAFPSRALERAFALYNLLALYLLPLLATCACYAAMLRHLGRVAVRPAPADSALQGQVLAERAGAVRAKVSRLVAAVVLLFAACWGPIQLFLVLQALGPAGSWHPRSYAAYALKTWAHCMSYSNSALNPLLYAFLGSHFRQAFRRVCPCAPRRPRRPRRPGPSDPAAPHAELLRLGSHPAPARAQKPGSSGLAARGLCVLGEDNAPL
As a reminder, the Ki is the dissociation constant of the complex between target and ligand, obtained from inhibition or displacement. For the molecule `COc1ccc(CNCC(=O)N2CCC(NC(=O)[C@H](CC(C)C)NC(=O)NNC(=O)[C@H](Cc3ccccc3)NC(=O)[C@@H](NC(=O)[C@H](CC(N)=O)NC(=O)[C@@H](Cc3c[nH]c4ccccc34)NC(=O)[C@@H](Cc3ccc(O)cc3)NC(=O)CCCCCNC(=O)CN3CCN(CC(=O)O)CCN(CC(=O)O)CCN(CC(=O)O)CC3)[C@@H](C)O)(C(=O)N[C@@H](Cc3ccncc3)C(N)=O)CC2)cc1` [Compound 293] ({DOTA-Ahx}-[dY][dW]NTF[azaGly]L[Api](Gly(Nα-4-MeO-benzyl))[4Pal]-NH2), the inhibition constant (Ki) is < 10 nM.

Consider `Cc1ccc(CNCC(=O)N2CCC(NC(=O)[C@H](CC(C)C)NC(=O)NNC(=O)[C@H](Cc3ccccc3)NC(=O)[C@@H](NC(=O)[C@H](CC(N)=O)NC(=O)[C@@H](Cc3ccncc3)NC(=O)[C@@H](Cc3ccc(O)cc3)NC(=O)CCCCCNC(=O)CN3CCN(CC(=O)O)CCN(CC(=O)O)CCN(CC(=O)O)CC3)[C@@H](C)O)(C(=O)N[C@@H](Cc3ccncc3)C(N)=O)CC2)cc1F` [Compound 294] ({DOTA-Ahx}-[dY][d4Pal]NTF[azaGly]L[Api](Gly(N-(3-F-4-Me-benzyl)))[4Pal]-NH2), for which the Ki was < 10 nM.

For `Cc1ccc(CNCC(=O)N2CCC(NC(=O)[C@H](CC(C)C)NC(=O)NNC(=O)[C@H](Cc3ccccc3)NC(=O)[C@@H](NC(=O)[C@H](CC(N)=O)NC(=O)[C@@H](Cc3ccncc3)NC(=O)CCCCCNC(=O)CN3CCN(CC(=O)O)CCN(CC(=O)O)CCN(CC(=O)O)CC3)[C@@H](C)O)(C(=O)N[C@@H](Cc3ccncc3)C(N)=O)CC2)cc1F` [Compound 295] ({DOTA-Ahx}-[d4Pal]NTF[azaGly]L[Api](Gly(N-(3-F-4-Me-benzyl)))[4Pal]-NH2), the Ki is < 10 nM.

In the case of `Cc1ccc(CNCC(=O)N2CCC(NC(=O)[C@H](CC(C)C)NC(=O)NNC(=O)[C@H](Cc3ccccc3)NC(=O)[C@@H](NC(=O)[C@H](CC(N)=O)NC(=O)[C@@H](Cc3ccncc3)NC(=O)CCCCCNC(=O)CN3CCN(CC(=O)O)CCN(CC(=O)O)CCN(CC(=O)O)CC3)[C@@H](C)O)(C(=O)N[C@@H](Cc3c[nH]c4ccccc34)C(N)=O)CC2)cc1F` [Compound 296] ({DOTA-Ahx}-[d4Pal]NTF[azaGly]L[Api](Gly(N-(3-F-4-Me-benzyl)))W-NH2), the inhibitory constant (Ki) was < 10 nM.

Regarding `Cc1ccc(CNCC(=O)N2CCC(NC(=O)[C@H](CC(C)C)NC(=O)NNC(=O)c3ccc(-c4ccccc4OCCCNC(=O)CCCCCNC(=O)CN4CCN(CC(=O)O)CCN(CC(=O)O)CCN(CC(=O)O)CC4)cc3)(C(=O)N[C@@H](Cc3c[nH]c4ccccc34)C(N)=O)CC2)cc1F` [Compound 297] ({DOTA-Ahx}-[X4][azaGly]L[Api](Gly(N-(3-F-4-Me-benzyl)))W-NH2), the Ki was < 10 nM.

For `Cc1ccc(CNCC(=O)N2CCC(NC(=O)[C@H](CC(C)C)NC(=O)NNC(=O)c3ccc(-c4ccccc4OCCCNC(=O)CN4CCN(CC(=O)O)CCN(CC(=O)O)CCN(CC(=O)O)CC4)cc3)(C(=O)N[C@@H](Cc3c[nH]c4ccccc34)C(N)=O)CC2)cc1F` [Compound 298] ({DOTA}-[X4][azaGly]L[Api](Gly(N-(3-F-4-Me-benzyl)))W-NH2), the inhibition constant Ki was < 10 nM.

For `COc1ccc(CNCC(=O)N2CCC(NC(=O)[C@H](CC(C)C)NC(=O)NNC(=O)[C@H](Cc3ccccc3)NC(=O)[C@@H](NC(=O)[C@H](CC(N)=O)NC(=O)[C@@H](Cc3ccncc3)NC(=O)[C@@H](Cc3ccc(O)cc3)NC(=O)CCCCCNC(=O)CN3CCN(CC(=O)O)CCN(CC(=O)O)CCN(CC(=O)O)CC3)[C@@H](C)O)(C(=O)N[C@@H](Cc3ccncc3)C(N)=O)CC2)cc1` [Compound 299] ({DOTA-Ahx}-[dY][d4Pal]NTF[azaGly]L[Api](Gly(Nα-4-MeO-benzyl))[4Pal]-NH2), the Ki was < 10 nM.

As to `CC(C)C[C@H](NC(=O)NNC(=O)[C@H](Cc1ccccc1)NC(=O)[C@@H](NC(=O)[C@H](CC(N)=O)NC(=O)[C@@H](Cc1ccc2ccccc2c1)NC(=O)[C@@H](Cc1ccc(O)cc1)NC(=O)CCCCCNC(=O)CN1CCN(CC(=O)O)CCN(CC(=O)O)CCN(CC(=O)O)CC1)[C@@H](C)O)C(=O)NC1(C(=O)N[C@@H](Cc2ccccc2)C(N)=O)CCN(C(=N)N)CC1` [Compound 300] ({DOTA-Ahx}-[dY][d2Nal]NTF[azaGly]L[Api(1-amidino)]F-NH2), the inhibition constant Ki was < 10 nM.

As for `CC(C)C[C@H](NC(=O)NNC(=O)[C@H](Cc1ccccc1)NC(=O)[C@@H](NC(=O)[C@H](CC(N)=O)NC(=O)[C@@H](Cc1ccc2ccccc2c1)NC(=O)CCCCCNC(=O)CN1CCN(CC(=O)O)CCN(CC(=O)O)CCN(CC(=O)O)CC1)[C@@H](C)O)C(=O)NC1(C(=O)N[C@@H](Cc2ccccc2)C(N)=O)CCN(C(=N)N)CC1` [Compound 301] ({DOTA-Ahx}-[d2Nal]NTF[azaGly]L[Api(1-amidino)]F-NH2), the Ki is < 10 nM.

Turning to `CC(C)C[C@H](NC(=O)NNC(=O)[C@H](Cc1ccccc1)NC(=O)[C@@H](NC(=O)[C@H](CC(N)=O)NC(=O)[C@@H](Cc1ccc2ccccc2c1)NC(=O)CN1CCN(CC(=O)O)CCN(CC(=O)O)CCN(CC(=O)O)CC1)[C@@H](C)O)C(=O)NC1(C(=O)N[C@@H](Cc2ccccc2)C(N)=O)CCN(C(=N)N)CC1` [Compound 302] ({DOTA}-[d2Nal]NTF[azaGly]L[Api(1-amidino)]F-NH2), the Ki was < 10 nM.

Turning to `Cc1ccc(CNCC(=O)N2CCC(NC(=O)[C@H](CC(C)C)NC(=O)NNC(=O)[C@H](Cc3ccccc3)NC(=O)[C@@H](NC(=O)[C@H](CC(N)=O)NC(=O)[C@@H](Cc3ccc4ccccc4c3)NC(=O)[C@@H](Cc3ccc(O)cc3)NC(=O)CCCCCNC(=O)CN3CCN(CC(=O)O)CCN(CC(=O)O)CCN(CC(=O)O)CC3)[C@@H](C)O)(C(=O)N[C@@H](Cc3c[nH]c4ccccc34)C(N)=O)CC2)cc1F` [Compound 304] ({DOTA-Ahx}-[dY][d2Nal]NTF[azaGly]L[Api](Gly(N-(3-F-4-Me-benzyl)))W-NH2), the Ki is < 10 nM.

As for `Cc1ccc(CNCC(=O)N2CCC(NC(=O)[C@H](CC(C)C)NC(=O)NNC(=O)[C@H](Cc3ccccc3)NC(=O)CCCCCNC(=O)[C@H](Cc3ccc(O)cc3)NC(=O)CNC(=O)CN3CCN(CC(=O)O)CCN(CC(=O)O)CCN(CC(=O)O)CC3)(C(=O)N[C@@H](Cc3c[nH]c4ccccc34)C(N)=O)CC2)cc1F` [Compound 305] ({DOTA}-GY[Ahx]F[azaGly]L[Api](Gly(N-(3-F-4-Me-benzyl)))W-NH2), the Ki is < 10 nM.

In the case of `Cc1ccc(CNCC(=O)N2CCC(NC(=O)[C@H](CC(C)C)NC(=O)NNC(=O)[C@H](Cc3ccccc3)NC(=O)CCCCCNC(=O)[C@H](Cc3ccc4ccccc4c3)NC(=O)[C@H](Cc3ccc(O)cc3)NC(=O)CNC(=O)CN3CCN(CC(=O)O)CCN(CC(=O)O)CCN(CC(=O)O)CC3)(C(=O)N[C@@H](Cc3c[nH]c4ccccc34)C(N)=O)CC2)cc1F` [Compound 307] ({DOTA}-GY[2Nal][Ahx]F[azaGly]L[Api](Gly(N-(3-F-4-Me-benzyl)))W-NH2), the Ki is < 10 nM.

As to `Cc1ccc(CCCC(=O)NCCCC[C@@H](NC(=O)CCCCCNC(=O)CN2CCN(CC(=O)O)CCN(CC(=O)O)CCN(CC(=O)O)CC2)C(=O)N[C@H](Cc2ccc(O)cc2)C(=O)N[C@H](Cc2ccc3ccccc3c2)C(=O)N[C@@H](CC(N)=O)C(=O)N[C@H](C(=O)N[C@@H](Cc2ccccc2)C(=O)NNC(=O)N[C@@H](CC(C)C)C(=O)NC2(C(=O)N[C@@H](Cc3ccccc3)C(N)=O)CCN(C(=N)N)CC2)[C@@H](C)O)cc1` [Compound 309] ({DOTA-Ahx}-[dK](Butanoyl(4-(4-MePh)))[dY][d2Nal]NTF[azaGly]L[Api(1-amidino)]F-NH2), the Ki was < 10 nM.

With `CC(C)C[C@H](NC(=O)NNC(=O)[C@H](Cc1ccccc1)NC(=O)[C@@H](NC(=O)[C@H](CC(N)=O)NC(=O)[C@@H](Cc1ccc2ccccc2c1)NC(=O)[C@@H](Cc1ccc(O)cc1)NC(=O)[C@@H](CCCCNC(=O)CCCc1ccc(I)cc1)NC(=O)CCCCCNC(=O)CN1CCN(CC(=O)O)CCN(CC(=O)O)CCN(CC(=O)O)CC1)[C@@H](C)O)C(=O)NC1(C(=O)N[C@@H](Cc2ccccc2)C(N)=O)CCN(C(=N)N)CC1` [Compound 310] ({DOTA-Ahx}-[dK](Butanoyl(4-(4-I-phenyl)))[dY][d2Nal]NTF[azaGly]L[Api(1-amidino)]F-NH2), the inhibitory constant (Ki) was < 10 nM.

Take `CC(C)C[C@H](NC(=O)NNC(=O)[C@H](Cc1ccccc1)NC(=O)[C@@H](NC(=O)[C@H](CC(N)=O)NC(=O)[C@@H]1C[C@@H](O)CN1C(=O)[C@@H](Cc1ccc(O)cc1)NC(=O)CCCCCNC(=O)CN1CCN(CC(=O)O)CCN(CC(=O)O)CCN(CC(=O)O)CC1)[C@@H](C)O)C(=O)NC1(C(=O)N[C@@H](Cc2c[nH]c3ccccc23)C(N)=O)CCN(C(=N)N)CC1` [Compound 311] ({DOTA-Ahx}-[dY][Hyp]NTF[azaGly]L[Api(1-amidino)]W-NH2): the inhibitory constant (Ki) is < 10 nM.

For `Cc1ccc(CNCC(=O)N2CCC(NC(=O)[C@H](CC(C)C)NC(=O)NNC(=O)[C@H](CC3CCCCC3)NC(=O)[C@@H](NC(=O)[C@H](CC(N)=O)NC(=O)CCCCCNC(=O)CN3CCN(CC(=O)O)CCN(CC(=O)O)CCN(CC(=O)O)CC3)[C@@H](C)O)(C(=O)N[C@@H](Cc3c[nH]c4ccccc34)C(N)=O)CC2)cc1F` [Compound 313] ({DOTA-Ahx}-NT[Cha][azaGly]L[Api](Gly(N-(3-F-4-Me-benzyl)))W-NH2), the Ki is < 10 nM.

For `Cc1ccc(CNCC(=O)N2CCC(NC(=O)[C@H](CC(C)C)NC(=O)NNC(=O)[C@H](CC3CCCCC3)NC(=O)[C@@H](NC(=O)[C@H](CC(N)=O)NC(=O)[C@@H](Cc3ccncc3)NC(=O)CCCCCNC(=O)CN3CCN(CC(=O)O)CCN(CC(=O)O)CCN(CC(=O)O)CC3)[C@@H](C)O)(C(=O)N[C@@H](Cc3c[nH]c4ccccc34)C(N)=O)CC2)cc1F` [Compound 314] ({DOTA-Ahx}-[d4Pal]NT[Cha][azaGly]L[Api](Gly(N-(3-F-4-Me-benzyl)))W-NH2), the Ki was < 10 nM.
